Laboratory results: US20090048346A1, “THERAPEUTIC FORMULATIONS” (Myriad Genetics, Incorporated, priority 2004, published 2009)

Conditions: 10 mg/mL in Cremophor:EtOH (1:1) diluted 1:9 with D5W, room temperature (approximately 25° C.), 38 days
Method: 10 ml of this solution was diluted 1:9 by the addition of 90 ml of D5W, and the resulting formulation was mixed by inversion until the solution appeared uniformly clear. The resulting mixture—an injectable formulation—was incubated at room temperature (approximately 25° C.) for 38 days.

O=C(Nc1cc(C(F)(F)F)ccc1Oc1ccc(Cl)c2ccccc12)c1cc(Cl)ccc1O [5-Chloro-N-[2-(4-chloro-naphtalen-1-yloxy)-5-trifluoromethyl-phenyl] -2-hydroxy-benzamide]
Stability of compound concentration in the injectable formulation: stable over the entire period
